Source: ChEMBL document CHEMBL6109038, “Discovery of potent dihydro-oxazinoquinolinone inhibitors of GuaB for the treatment of tuberculosis” (Bioorg Med Chem Lett, 2025)
Converted amounts (≈) assume the structure as drawn.

How the values were obtained:
[1] = tested on: Mycobacterium tuberculosis; assay: Antitubercular activity against Mycobacterium tuberculosis assessed as inhibition of bacterial growth; format: functional
[2] = tested on: Mycobacterium tuberculosis; assay: Antitubercular activity against Mycobacterium tuberculosis H37RvMA assessed as inhibition of bacterial growth by Alamar blue dye based broth microdilution method; format: functional
Cytochrome P450 3A4 [3] = biological target: T1, Cytochrome P450 3A4 (Homo sapiens, UniProt P08684); assay: Inhibition of CYP3A4 (unknown origin) using testosterone as substrate; format: ADME
[4] = tested on: Mycobacterium tuberculosis; assay: Antitubercular activity against Mycobacterium tuberculosis H37Ra assessed as inhibition of bacterial growth; format: functional
[5] = Clearance in human liver microsomes; format: ADME, Microsome
[6] = Cytotoxicity against human primary hepatocytes in absence of serum; format: toxicity, cell-based, Hepatocyte
[7] = Oral bioavailability in mouse; format: ADME, organism-based; conditions: in vivo
Cytochrome P450 1A2 = biological target: T2, Cytochrome P450 1A2 (Homo sapiens, UniProt P05177); assay: Inhibition of CYP1A2 (unknown origin); format: ADME
T2 sequence (P05177 whole entry): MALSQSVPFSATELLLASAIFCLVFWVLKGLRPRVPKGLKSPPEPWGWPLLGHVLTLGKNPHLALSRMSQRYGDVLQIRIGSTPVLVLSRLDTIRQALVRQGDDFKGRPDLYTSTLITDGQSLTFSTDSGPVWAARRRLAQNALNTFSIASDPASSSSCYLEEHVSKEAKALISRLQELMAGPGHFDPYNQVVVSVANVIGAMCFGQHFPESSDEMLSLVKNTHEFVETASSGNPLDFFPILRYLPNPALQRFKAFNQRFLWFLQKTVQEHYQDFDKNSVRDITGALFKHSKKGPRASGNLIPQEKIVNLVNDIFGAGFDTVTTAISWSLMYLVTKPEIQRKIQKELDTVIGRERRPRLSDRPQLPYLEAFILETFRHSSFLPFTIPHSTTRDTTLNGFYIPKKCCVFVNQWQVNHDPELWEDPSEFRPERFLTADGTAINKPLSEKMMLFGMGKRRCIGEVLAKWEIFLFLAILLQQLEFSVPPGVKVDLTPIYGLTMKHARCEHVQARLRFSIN

hERG = hERG (Homo sapiens, UniProt Q12809); assay: Inhibition of hERG at 10 uM relative to control; format: toxicity
[8] = biological target: Inosine-5'-monophosphate dehydrogenase (Mycobacterium tuberculosis (strain ATCC 25618 / H37Rv), UniProt P9WKI7); assay: Inhibition of Mycobacterium tuberculosis GuaB
[9] = Cytotoxicity against human primary hepatocytes in presence of serum; format: toxicity, cell-based, Hepatocyte
Cytochrome P450 3A4 [10] = biological target: T1, Cytochrome P450 3A4; assay: Inhibition of CYP3A4 (unknown origin); format: ADME
[11] = Lipophilicity, logD of the compound measured at pH 7.4; format: physicochemical; conditions: buffer
Cytochrome P450 2C8 = biological target: T3, Cytochrome P450 2C8 (Homo sapiens, UniProt P10632); assay: Inhibition of CYP2C8 (unknown origin); format: ADME
T3 sequence (P10632 whole entry): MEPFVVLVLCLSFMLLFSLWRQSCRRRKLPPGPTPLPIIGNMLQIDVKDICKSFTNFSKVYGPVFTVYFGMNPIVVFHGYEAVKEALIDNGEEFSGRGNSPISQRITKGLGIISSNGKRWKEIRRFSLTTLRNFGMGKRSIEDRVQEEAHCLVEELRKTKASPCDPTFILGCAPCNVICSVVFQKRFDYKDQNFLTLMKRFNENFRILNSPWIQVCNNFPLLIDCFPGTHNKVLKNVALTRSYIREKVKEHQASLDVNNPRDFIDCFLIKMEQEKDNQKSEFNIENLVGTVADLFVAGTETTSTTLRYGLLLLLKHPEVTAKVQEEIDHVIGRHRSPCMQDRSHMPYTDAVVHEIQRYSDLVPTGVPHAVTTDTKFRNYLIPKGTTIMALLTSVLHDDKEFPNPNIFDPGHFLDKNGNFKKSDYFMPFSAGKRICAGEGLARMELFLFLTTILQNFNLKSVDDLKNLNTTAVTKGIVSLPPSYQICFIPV

[12] = Clearance in mouse; format: ADME, organism-based; conditions: in vivo
Cytochrome P450 2D6 = Cytochrome P450 2D6 (Homo sapiens, UniProt P10635); assay: Inhibition of CYP2D6 (unknown origin); format: ADME
IMPDH = assay: Inhibition of human IMPDH; format: toxicity
[13] = tested on: Mycobacterium tuberculosis; assay: Antitubercular activity against Mycobacterium tuberculosis H37Rv assessed as inhibition of bacterial growth; format: functional
Cytochrome P450 2C9 = Cytochrome P450 2C9 (Homo sapiens, UniProt P11712); assay: Inhibition of CYP2C9 (unknown origin); format: ADME
[14] = tested on: Mycobacterium tuberculosis; assay: Antitubercular activity against Mycobacterium tuberculosis ATCC 27294 assessed as inhibition of bacterial growth measured after 1 week by broth microdilution method; format: functional; conditions: ATCC 27294, 168 h, time 1 weeks

T1 sequence (P08684 whole entry): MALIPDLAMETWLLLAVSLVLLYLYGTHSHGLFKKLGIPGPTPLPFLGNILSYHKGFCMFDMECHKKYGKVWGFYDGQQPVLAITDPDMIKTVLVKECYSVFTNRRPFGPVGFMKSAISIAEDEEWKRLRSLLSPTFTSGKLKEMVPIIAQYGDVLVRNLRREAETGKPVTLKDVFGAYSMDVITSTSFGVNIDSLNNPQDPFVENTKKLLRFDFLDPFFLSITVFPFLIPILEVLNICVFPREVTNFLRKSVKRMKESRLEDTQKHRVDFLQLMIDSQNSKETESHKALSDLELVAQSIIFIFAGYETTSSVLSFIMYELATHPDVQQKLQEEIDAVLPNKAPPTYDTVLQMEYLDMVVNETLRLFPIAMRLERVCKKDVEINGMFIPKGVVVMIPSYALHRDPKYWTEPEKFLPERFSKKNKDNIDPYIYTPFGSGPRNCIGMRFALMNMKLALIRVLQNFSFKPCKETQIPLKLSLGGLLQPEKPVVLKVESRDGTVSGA
hERG, sequence (Q12809 whole entry): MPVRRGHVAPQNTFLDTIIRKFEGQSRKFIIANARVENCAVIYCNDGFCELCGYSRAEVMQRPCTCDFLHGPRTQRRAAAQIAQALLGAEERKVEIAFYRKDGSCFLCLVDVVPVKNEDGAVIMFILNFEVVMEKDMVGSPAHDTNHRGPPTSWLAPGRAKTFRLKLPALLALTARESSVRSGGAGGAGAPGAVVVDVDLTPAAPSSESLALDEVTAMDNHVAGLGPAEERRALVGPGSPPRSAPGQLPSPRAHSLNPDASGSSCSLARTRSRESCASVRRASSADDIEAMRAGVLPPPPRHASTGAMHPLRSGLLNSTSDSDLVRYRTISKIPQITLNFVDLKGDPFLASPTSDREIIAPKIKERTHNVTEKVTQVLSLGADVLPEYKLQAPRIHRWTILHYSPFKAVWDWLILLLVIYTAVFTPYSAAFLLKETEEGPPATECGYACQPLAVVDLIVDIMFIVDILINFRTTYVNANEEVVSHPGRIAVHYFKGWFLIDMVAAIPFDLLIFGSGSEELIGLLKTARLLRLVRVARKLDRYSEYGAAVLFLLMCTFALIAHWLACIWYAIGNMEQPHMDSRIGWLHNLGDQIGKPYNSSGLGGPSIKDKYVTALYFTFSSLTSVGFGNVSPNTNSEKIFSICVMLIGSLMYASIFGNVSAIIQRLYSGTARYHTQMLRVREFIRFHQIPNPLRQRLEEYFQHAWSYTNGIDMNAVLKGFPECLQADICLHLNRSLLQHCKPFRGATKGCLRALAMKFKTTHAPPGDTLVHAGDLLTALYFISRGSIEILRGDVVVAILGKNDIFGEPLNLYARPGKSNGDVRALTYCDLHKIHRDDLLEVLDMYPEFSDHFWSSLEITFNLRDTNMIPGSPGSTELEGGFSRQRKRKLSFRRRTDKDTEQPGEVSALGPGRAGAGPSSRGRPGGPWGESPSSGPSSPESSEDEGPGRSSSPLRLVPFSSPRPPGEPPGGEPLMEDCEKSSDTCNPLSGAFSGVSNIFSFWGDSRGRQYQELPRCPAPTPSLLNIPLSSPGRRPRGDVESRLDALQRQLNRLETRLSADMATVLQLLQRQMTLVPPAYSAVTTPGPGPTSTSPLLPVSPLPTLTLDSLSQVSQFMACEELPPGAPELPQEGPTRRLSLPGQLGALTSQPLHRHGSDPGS
Cytochrome P450 2D6, sequence (P10635 whole entry): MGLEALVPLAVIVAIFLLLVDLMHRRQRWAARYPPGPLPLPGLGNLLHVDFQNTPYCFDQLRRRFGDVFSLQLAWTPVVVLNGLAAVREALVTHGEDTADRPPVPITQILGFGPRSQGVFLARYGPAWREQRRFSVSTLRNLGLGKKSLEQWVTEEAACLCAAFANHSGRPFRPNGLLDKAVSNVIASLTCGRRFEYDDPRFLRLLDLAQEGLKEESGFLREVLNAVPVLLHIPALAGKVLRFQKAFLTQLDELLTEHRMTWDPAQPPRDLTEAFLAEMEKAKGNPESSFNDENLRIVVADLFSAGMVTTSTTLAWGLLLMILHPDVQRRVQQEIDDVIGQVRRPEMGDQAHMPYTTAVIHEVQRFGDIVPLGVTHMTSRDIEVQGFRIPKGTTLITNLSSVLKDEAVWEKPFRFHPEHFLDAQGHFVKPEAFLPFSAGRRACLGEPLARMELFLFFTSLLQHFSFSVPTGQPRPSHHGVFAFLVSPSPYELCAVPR
Inosine-5'-monophosphate dehydrogenase, sequence (P9WKI7 whole entry): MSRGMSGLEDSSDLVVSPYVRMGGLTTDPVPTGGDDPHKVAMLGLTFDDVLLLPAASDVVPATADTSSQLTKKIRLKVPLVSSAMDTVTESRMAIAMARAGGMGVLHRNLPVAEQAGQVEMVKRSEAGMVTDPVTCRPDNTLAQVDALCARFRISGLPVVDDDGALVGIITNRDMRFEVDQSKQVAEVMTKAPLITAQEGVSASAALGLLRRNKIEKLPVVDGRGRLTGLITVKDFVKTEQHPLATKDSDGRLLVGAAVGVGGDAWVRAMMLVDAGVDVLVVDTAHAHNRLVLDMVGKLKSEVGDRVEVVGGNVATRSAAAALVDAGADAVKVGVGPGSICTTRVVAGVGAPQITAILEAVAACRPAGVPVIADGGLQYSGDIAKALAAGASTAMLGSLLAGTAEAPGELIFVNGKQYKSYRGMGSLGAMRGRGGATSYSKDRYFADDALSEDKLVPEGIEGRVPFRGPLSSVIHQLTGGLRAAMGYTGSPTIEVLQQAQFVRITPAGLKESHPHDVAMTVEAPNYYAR
Cytochrome P450 2C9, sequence (P11712 whole entry): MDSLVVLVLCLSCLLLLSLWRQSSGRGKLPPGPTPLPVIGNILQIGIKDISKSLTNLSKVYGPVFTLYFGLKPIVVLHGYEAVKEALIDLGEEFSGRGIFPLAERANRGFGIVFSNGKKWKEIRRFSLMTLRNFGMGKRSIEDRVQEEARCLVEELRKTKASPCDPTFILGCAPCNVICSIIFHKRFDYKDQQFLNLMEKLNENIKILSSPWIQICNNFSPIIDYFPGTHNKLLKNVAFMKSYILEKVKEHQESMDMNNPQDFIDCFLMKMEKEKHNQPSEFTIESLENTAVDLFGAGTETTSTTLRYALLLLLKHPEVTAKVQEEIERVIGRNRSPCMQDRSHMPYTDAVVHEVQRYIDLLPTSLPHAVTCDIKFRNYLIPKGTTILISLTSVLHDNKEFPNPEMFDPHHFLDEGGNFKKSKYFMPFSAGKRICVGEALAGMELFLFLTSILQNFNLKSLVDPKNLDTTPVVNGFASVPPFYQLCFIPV

Row | SMILES | IC50 (Cytochrome P450 3A4 [3]) | MIC [4] | CLhep predicted [5] | logD [11] | other results
1 | Cc1n[nH]c(C)c1S(=O)(=O)Nc1ccc2c[nH]nc2c1 |  |  |  |  | MIC [1]: 2 µM (≈ 0.583 µg/mL)
2 | O=C(C1CCCCC1)N1CCN(S(=O)(=O)c2cccc3cnccc23)CC1 |  |  |  |  | MIC [2]: 2 µM (≈ 0.775 µg/mL)
3 | C[C@@H](Oc1ccc(-c2ccn[nH]2)cc1)c1cncc(-c2nc(Cl)c[nH]2)c1 | 0.24 µM | 0.11 µM (≈ 0.0402 µg/mL) | 12 mL/min/kg |  | 
4 | C[C@@H](Oc1ccc2c(=O)cc3n(c2c1)CCOC3)c1cc(-n2ccc(Cl)n2)cnn1 | > 10 µM | 0.26 µM (≈ 0.11 µg/mL) | 5.3 mL/min/kg | 2.3 | IC50 [6]: > 100 µM; bioavailability [7]: 5.2%; IC50 (Cytochrome P450 1A2): > 10 µM; inhibition at 10 µM (hERG): 28%; IC50 [8]: 0.0017 µM; IC50 [9]: > 100 µM; IC50 (Cytochrome P450 3A4 [10]): > 10 µM; IC50 (Cytochrome P450 2C8): > 10 µM; clearance [12]: 35 mL/min/kg; IC50 (Cytochrome P450 2D6): > 10 µM; IC50 (IMPDH): > 50 µM
5 | C[C@@H](Oc1ccc2ncc3c(c2c1)CCOC3)c1cncc(-c2nc(Cl)c[nH]2)c1 | 0.57 µM | < 0.003 µM | 19 mL/min/kg |  | MIC [13]: 0.039 µM (≈ 0.0159 µg/mL); IC50 (Cytochrome P450 1A2): < 10 µM; IC50 (Cytochrome P450 3A4 [10]): < 10 µM; IC50 (Cytochrome P450 2C8): < 10 µM; IC50 (Cytochrome P450 2D6): < 10 µM; IC50 (Cytochrome P450 2C9): < 10 µM
6 | C[C@@H](Oc1ccc2c(=O)cc3n(c2c1)CCOC3)c1cncc(-c2nc(C(F)(F)F)c[nH]2)c1 | 4.3 µM | 0.099 µM (≈ 0.0452 µg/mL) | 16 mL/min/kg | 3 | 
7 | C/C(=N/O)c1cccc(C(C)(C)NC(=O)Nc2ccc(Cl)c(C(=O)N(C)C)c2)c1 |  |  |  |  | MIC [14]: 16 µM (≈ 6.67 µg/mL)
8 | C[C@@H](Oc1ccc2c(=O)cc3n(c2c1)CCOC3)c1cncc(-c2nc(C#N)c[nH]2)c1 | > 10 µM | 0.39 µM (≈ 0.161 µg/mL) | 5.5 mL/min/kg | 2.1 | 
9 | C[C@@H](Oc1cccc(-c2ccn[nH]2)c1)c1cncc(-c2nc(Cl)c[nH]2)c1 | 0.32 µM | 3.1 µM (≈ 1.13 µg/mL) | 16 mL/min/kg |  | 
10 | C[C@@H](Oc1cc(-c2ccn[nH]2)cc(N2CCOCC2)c1)c1cncc(-c2nc(Cl)c[nH]2)c1 |  | 0.18 µM (≈ 0.0812 µg/mL) | 16 mL/min/kg |  | 
11 | C[C@@H](Oc1ccc2c(=O)cc3n(c2c1)CCOC3)c1cncc(-n2ccc(C#N)n2)c1 |  | 0.18 µM (≈ 0.0744 µg/mL) | 11 mL/min/kg | 1.7 | 
12 | C[C@H](Nc1ccc2ncc3c(c2c1)CCOC3)C(=O)Nc1ccc(Cl)nc1 |  | 0.035 µM (≈ 0.0134 µg/mL) | 16 mL/min/kg |  | MIC [13]: 0.058 µM (≈ 0.0222 µg/mL); clearance [12]: 132 mL/min/kg
13 | C[C@@H](Oc1ccc2c(=O)cc3n(c2c1)CCOC3)c1cc(-n2ccc(C(F)(F)F)n2)cnn1 | > 10 µM | 0.58 µM (≈ 0.265 µg/mL) | 7 mL/min/kg | 2.1 | 
14 | C[C@@H](Oc1ccc2c(=O)cc3n(c2c1)CCOC3)c1cncc(-n2ccc(Cl)n2)c1 | > 10 µM | 0.091 µM (≈ 0.0385 µg/mL) | 16 mL/min/kg | 2.8 | 
15 | C[C@@H](Oc1ccc2c(=O)cc3n(c2c1)CCOC3)c1cc(-n2ccc(OC(F)F)n2)cnn1 | > 10 µM | 0.29 µM (≈ 0.132 µg/mL) | < 3.9 mL/min/kg | 1.6 | inhibition at 10 µM (hERG): 70%
16 | C[C@@H](Oc1ccc2ncc(CO)cc2c1)c1cncc(-c2nc(Cl)c[nH]2)c1 | 2.1 µM | 0.007 µM (≈ 0.00267 µg/mL) | 12 mL/min/kg |  | 
17 | C[C@@H](Oc1ccc2c(=O)cc3n(c2c1)CCOC3)c1cncc(-n2ccc(C(F)(F)F)n2)c1 | > 10 µM | 0.29 µM (≈ 0.132 µg/mL) | 18 mL/min/kg | 3.1 | 
18 | CC(Oc1ccc2c(=O)cc3n(c2c1)CCOC3)c1cncc(-c2nc(Cl)c[nH]2)c1 (racemic) | 3.7 µM | 0.12 µM (≈ 0.0507 µg/mL) | 13 mL/min/kg | 2.2 | 
